Source: PubChem BioAssay (NCI)
Where “and” joins values, the source holds several entries; their conditions need not be identical. Equal values may be shown once.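 Five concentrations, 48 hours, 96-well plates. GI50: concentration for 50% inhibition of growth. TGI: concentration producing complete growth inhibition.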

Legend:
Test in all cases: NCI tumour cell line growth inhibition, 48 h
HOP-18 NSCLC = tested on: HOP-18 NSCLC
P388 leukemia = tested on: P388 leukemia
P388/ADR leukemia = tested on: P388/ADR leukemia
DMS 273 small cell lung = tested on: DMS 273 small cell lung
SN12K1 renal = tested on: SN12K1 renal
DMS 114 small cell lung = tested on: DMS 114 small cell lung
SNB-78 CNS = tested on: SNB-78 CNS
M19-MEL melanoma = tested on: M19-MEL melanoma
LXFL 529 NSCLC = tested on: LXFL 529 NSCLC

Row | Compound | GI50 (HOP-18 NSCLC) | TGI (HOP-18 NSCLC) | GI50 (P388 leukemia) | TGI (P388 leukemia) | GI50 (P388/ADR leukemia) | TGI (P388/ADR leukemia) | GI50 (DMS 273 small cell lung) | TGI (DMS 273 small cell lung) | GI50 (SN12K1 renal) | TGI (SN12K1 renal) | GI50 (DMS 114 small cell lung) | TGI (DMS 114 small cell lung) | GI50 (SNB-78 CNS) | TGI (SNB-78 CNS) | GI50 (M19-MEL melanoma) | TGI (M19-MEL melanoma) | TGI (LXFL 529 NSCLC)
1 | CC(=O)c1c(O)c(C)c(O)c2c1OC1=CC(=O)C(C(C)=O)C(=O)C12C (stereo not given) | 3.28 µM and 14.6 µM | 10.6 µM and 67.2 µM | 3.74 µM and 23.8 µM | 26.3 µM and 60.3 µM | 5.92 µM and 20.1 µM | 44.1 µM and 61.5 µM | 3.74 µM and 7.53 µM | 11.9 µM and 22.5 µM | 4.99 µM and 14.1 µM | 19.4 µM and 39.3 µM | 6.22 µM and 18.5 µM | 29.9 µM and 58.3 µM | 8.87 µM and 28.8 µM | 48.6 µM and 80.4 µM | 5.4 µM and 24.9 µM | 44.4 µM and 79.3 µM | –
2 | COc1ccc(CC2C(=O)NC(C)C(=O)N(C)C3Cc4ccc(cc4)Oc4cc(ccc4O)CC(C(=O)NC(C)C(=O)NC(C)C(=O)N2C)N(C)C3=O)cc1 (stereo not given) | – | – | – | 0.0177 µM | – | 20.6 µM | – | 0.0532 µM | – | – | – | – | – | 0.0256 µM | – | 0.0192 µM | –
3 | C=C1C(=O)C[C@@]23CCC[C@@]12CC(O)C3 (stereo not given in full) | – | 37.4 µM | – | 25.3 µM | – | 32.4 µM | – | 45.8 µM | – | 39.6 µM | – | 38.3 µM | – | 99 µM | – | > 70.2 µM | –
4 | CC(=O)Nc1ccc(C(=O)N2N=C(C)/C(=C/c3cccc(O)c3)C2=O)cc1 | – | – | – | – | – | – | – | > 100 µM | – | – | – | > 100 µM | – | – | – | > 100 µM | –
5 | COc1cc2cc3c4c(cc(OC)c(OC)c4c2cc1OC)CCN3C(=O)OCCBr | – | – | – | – | – | – | – | > 100 µM | – | – | – | – | – | > 100 µM | – | > 100 µM | –
6 | O=C(CCN1CCCCC1CO)Nc1ccc2c(c1)C(=O)c1ccc(NC(=O)CCN3CCCCC3CO)cc1C2=O (stereo not given) | – | – | – | – | – | – | – | 19.2 µM | – | – | – | 30.9 µM | – | 34.6 µM | – | 29.3 µM | 9.71 µM
7 | Fc1nc(F)nc(-c2c3ccccc3c3n2CCS3)n1 | – | – | – | – | – | – | – | > 100 µM | – | – | – | > 100 µM | – | > 100 µM | – | > 100 µM | > 100 µM
